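Protocol summary: plate cells (96-well), add compound at 5 concentrations, incubate 48 h, interpolate endpoints linearly. Abbreviation: GI50, concentration required for 50% inhibition of growth. At the TGI there is no net growth.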
What was measured:
Assay in all cases: NCI tumour cell line growth inhibition, 48 h
[1] = test system: MDA-MB-468 breast
[2] = test system: SK-OV-3 ovarian
[3] = test system: SN12C renal
[4] = test system: SF-268 CNS
[5] = test system: OVCAR-3 ovarian
[6] = test system: SR leukemia
[7] = test system: CAKI-1 renal
[8] = test system: SF-539 CNS
[9] = test system: HOP-92 NSCLC
[10] = test system: UACC-257 melanoma
[11] = test system: HCC-2998 colon
[12] = test system: NCI-H23 lung
[13] = test system: K-562 leukemia
[14] = test system: SF-295 CNS
[15] = test system: BT-549 breast
[16] = test system: HCT-15 colon
[17] = test system: DU-145 prostate
[18] = test system: MDA-MB-231 breast
[19] = test system: PC-3 prostate
[20] = test system: UO-31 renal
[21] = test system: HS 578T breast
[22] = test system: A498 renal
[23] = test system: T-47D breast
[24] = test system: SNB-19 CNS
[25] = test system: NCI-H226 lung
[26] = test system: SNB-75 CNS
[27] = test system: OVCAR-5 ovarian
[28] = test system: LOX IMVI melanoma
[29] = test system: SK-MEL-28 melanoma
[30] = test system: SK-MEL-5 melanoma

In the case of `O=C(CSc1nc2ccccc2c(=O)n1-c1ccc(Cl)cc1)Nc1ccc(-c2nc3ccc([N+](=O)[O-])cc3[nH]2)cc1`, the TGI [1] is reported as 3.2 µM, the GI50 [2] is reported as 2.82 µM and the TGI [2] is reported as 32.7 µM. The GI50 [3] was 1.58 µM, the TGI [3] was 4.21 µM and the GI50 [4] was 4.62 µM. The TGI [4] was > 100 µM, the GI50 [5] was 2.53 µM and the TGI [5] was 7.43 µM. It also gave a GI50 [6] of 2.16 µM, a TGI [6] of 24.1 µM and a GI50 [7] of 12 µM. The TGI [7] was > 100 µM, the GI50 [8] was 1.9 µM and the TGI [8] was 4.06 µM. It also gave a GI50 [9] of 1.75 µM, a TGI [9] of 6.07 µM and a GI50 [10] of 1.69 µM. It also gave a TGI [10] of 4.95 µM, a GI50 [11] of 2.95 µM and a TGI [11] of 15.2 µM. The GI50 [12] was 1.8 µM, the TGI [12] was 5.36 µM and the GI50 [13] was 2.63 µM. The TGI [13] was > 100 µM, the GI50 [14] was 1.73 µM and the TGI [14] was 4.56 µM. It also gave a GI50 [15] of 1.84 µM, a TGI [15] of 6.61 µM and a GI50 [16] of 2.77 µM. For the same molecule, the TGI [16] was > 100 µM, the GI50 [17] was 3.79 µM and the TGI [17] was > 100 µM. It also gave a GI50 [18] of 1.82 µM, a TGI [18] of 4.62 µM and a GI50 [19] of 1.79 µM. For the same molecule, the TGI [19] was 7.01 µM, the GI50 [20] was 30 µM and the TGI [20] was > 100 µM. The GI50 [21] was 1.6 µM, the TGI [21] was 4.57 µM and the GI50 [22] was 3.23 µM. The TGI [22] was 12.9 µM, the GI50 [23] was 1.41 µM and the TGI [23] was 3.56 µM. It also gave a GI50 [24] of 2.33 µM, a TGI [24] of 8.77 µM and a GI50 [25] of 1.77 µM. It also gave a TGI [25] of 4.04 µM, a GI50 [26] of 2.03 µM and a TGI [26] of 8.21 µM. For the same molecule, the GI50 [27] was 2.65 µM, the TGI [27] was 20.5 µM and the GI50 [28] was 1.44 µM. The TGI [28] was 3.04 µM, the GI50 [29] was 1.72 µM and the TGI [29] was 3.87 µM. The GI50 [30] was 3.01 µM and the TGI [30] was 11.7 µM.
